Each structure is given as a SMILES string.

The assay addresses T1, human TGR5 (Homo sapiens, UniProt Q8TDU6).
T1 construct: expressed in transfected cells; host or cells: HEK293
T1 sequence (Q8TDU6 1-330): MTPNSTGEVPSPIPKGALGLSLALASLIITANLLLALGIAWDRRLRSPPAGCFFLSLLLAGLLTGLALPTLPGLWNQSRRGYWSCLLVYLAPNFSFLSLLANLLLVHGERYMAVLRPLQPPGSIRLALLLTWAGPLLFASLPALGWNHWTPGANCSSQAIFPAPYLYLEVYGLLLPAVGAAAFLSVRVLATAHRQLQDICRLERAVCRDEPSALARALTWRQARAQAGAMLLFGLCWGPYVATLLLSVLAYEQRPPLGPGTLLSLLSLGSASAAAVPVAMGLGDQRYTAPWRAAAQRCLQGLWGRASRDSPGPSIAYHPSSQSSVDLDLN
Kind of assay: Cell-based TGR5 assay (cAMP generation, HTRF). The following applies: HEK293 cells stably transfected with human TGR5; cAMP by HTRF; 30 minutes at 37° C.; read-out: pEC50 Human TGR5 (converted). In outline:
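Read-out was HTRF detection of cAMP, converted to concentration via a standard curve and fitted (3-parameter logistic) for pEC50 and maximal response. Agonist stimulation used HEK293 cells stably transfected with human TGR5, incubated 30 min at 37° C in IBMX-containing buffer at 0.05 nM to 10 μM compound.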
On the technique in general: TR-FRET usually uses a lanthanide donor and a delayed reading to cut background.
As to `CC(=O)NCCCCN(CCCCSc1ccc(Cl)c(CNC2(c3cnccc3-c3ccccc3OC3CC3)CC2)c1)C(=O)[C@@H](O)[C@@H](O)[C@H](O)[C@@H](O)CO` [Compound I-567, (2S,3S,4R,5S)-N-[4-({4-chloro-3-[({1-[4-(2-cyclopropoxyphenyl)pyridin-3-yl]cyclopropyl}amino)methyl]phenyl}sulfanyl)butyl]-N-(4-acetamidobutyl)-2,3,4,5,6-pentahydroxyhexanamide], the EC50 was 0.126 to 1 µM.

On to `CC(=O)NCCCCN(CCCCSc1ccc(Cl)c(COC2(c3cnccc3-c3ccccc3OC3CC3)CC2)c1)C(=O)[C@@H](O)[C@@H](O)[C@H](O)[C@@H](O)CO` [Compound I-568, (2S,3S,4R,5S)-N-(4-{[4-chloro-3-({1-[4-(2-cyclopropoxyphenyl)pyridin-3-yl]cyclopropoxy}methyl)phenyl]sulfanyl}butyl)-N-(4-acetamidobutyl)-2,3,4,5,6-pentahydroxyhexanamide], for which the EC50 is under 0.1 µM.

For `O=C([C@@H](O)[C@@H](O)[C@H](O)[C@@H](O)CO)N(CCCCSc1ccc(Cl)c(COC2(c3cnccc3-c3ccccc3OC3CC3)CC2)c1)C1CCS(=O)(=O)CC1` [Compound I-569, (2S,3S,4R,5S)-N-(4-{[4-chloro-3-({1-[4-(2-cyclopropoxyphenyl)pyridin-3-yl]cyclopropoxy}methyl)phenyl]sulfanyl}butyl)-N-(1,1-dioxo-1λ^6-thian-4-yl)-2,3,4,5,6-pentahydroxyhexanamide], the EC50 was 0.126 to 1 µM.

For `CS(=O)(=O)NCCCCN(CCCCSc1ccc(Cl)c(COC2(c3cnccc3-c3ccccc3OC3CC3)CC2)c1)C(=O)[C@@H](O)[C@@H](O)[C@H](O)[C@@H](O)CO` [Compound I-570, (2S,3S,4R,5S)-N-(4-{[4-chloro-3-({1-[4-(2-cyclopropoxyphenyl)pyridin-3-yl]cyclopropoxy}methyl)phenyl]sulfanyl}butyl)-2,3,4,5,6-pentahydroxy-N-(4-methanesulfonamidobutyl) hexanamide], the EC50 is under 0.1 µM.

As to `CS(=O)(=O)NCCN(CCCCSc1ccc(Cl)c(CNC2(c3cnccc3-c3ccccc3OC3CC3)CC2)c1)C(=O)[C@@H](O)[C@@H](O)[C@H](O)[C@@H](O)CO` [Compound I-571, (2S,3S,4R,5S)-N-[4-({4-chloro-3-[({1-[4-(2-cyclopropoxyphenyl)pyridin-3-yl]cyclopropyl}amino)methyl]phenyl}sulfanyl)butyl]-2,3,4,5,6-pentahydroxy-N-(2-methanesulfonamidoethyl) hexanamide], the EC50 is under 0.1 µM. As for `CCOC(=O)NCCN(CCCCSc1ccc(Cl)c(CNC2(c3cnccc3-c3ccccc3OC3CC3)CC2)c1)C(=O)[C@@H](O)[C@@H](O)[C@H](O)[C@@H](O)CO` [Compound I-572, ethyl N-{2-[(2S,3S,4R,5S)-N-[4-({4-chloro-3-[({1-[4-(2-cyclopropoxyphenyl)pyridin-3-yl]cyclopropyl}amino)methyl]phenyl}sulfanyl)butyl]-2,3,4,5,6-pentahydroxyhexanamido]ethyl}carbamate], the EC50 is under 0.1 µM. For `CC(=O)NCCCN(CCCCSc1ccc(Cl)c(CNC2(c3cnccc3-c3ccccc3OC3CC3)CC2)c1)C(=O)[C@@H](O)[C@@H](O)[C@H](O)[C@@H](O)CO` [Compound I-573, (2S,3S,4R,5S)-N-[4-({4-chloro-3-[({1-[4-(2-cyclopropoxyphenyl)pyridin-3-yl]cyclopropyl}amino)methyl]phenyl}sulfanyl)butyl]-N-(3-acetamidopropyl)-2,3,4,5,6-pentahydroxyhexanamide], the EC50 is 0.126 to 1 µM. Turning to `CCOC(=O)NCCCN(CCCCSc1ccc(Cl)c(CNC2(c3cnccc3-c3ccccc3OC3CC3)CC2)c1)C(=O)[C@@H](O)[C@@H](O)[C@H](O)[C@@H](O)CO` [Compound I-574, ethyl N-{3-[(2S,3S,4R,5S)-N-[4-({4-chloro-3-[({1-[4-(2-cyclopropoxyphenyl)pyridin-3-yl]cyclopropyl}amino)methyl]phenyl}sulfanyl)butyl]-2,3,4,5,6-pentahydroxyhexanamido]propyl}carbamate], the EC50 was under 0.1 µM. Turning to `CS(=O)(=O)NCCN(CCCCSc1ccc(Cl)c(COC2(c3cnccc3-c3ccccc3OC3CC3)CC2)c1)C(=O)[C@@H](O)[C@@H](O)[C@H](O)[C@@H](O)CO` [Compound I-575, (2S,3S,4R,5S)-N-(4-{[4-chloro-3-({1-[4-(2-cyclopropoxyphenyl)pyridin-3-yl]cyclopropoxy}methyl)phenyl]sulfanyl}butyl)-2,3,4,5,6-pentahydroxy-N-(2-methanesulfonamidoethyl) hexanamide], the EC50 was under 0.1 µM. In the case of `CCOC(=O)NCCN(CCCCSc1ccc(Cl)c(COC2(c3cnccc3-c3ccccc3OC3CC3)CC2)c1)C(=O)[C@@H](O)[C@@H](O)[C@H](O)[C@@H](O)CO` [Compound I-576, ethyl N-{2-[(2S,3S,4R,5S)-N-(4-{[4-chloro-3-({1-[4-(2-cyclopropoxyphenyl)pyridin-3-yl]cyclopropoxy}methyl)phenyl]sulfanyl}butyl)-2,3,4,5,6-pentahydroxyhexanamido]ethyl}carbamate], the EC50 is under 0.1 µM. As for `CS(=O)(=O)NCCCN(CCCCSc1ccc(Cl)c(COC2(c3cnccc3-c3ccccc3OC3CC3)CC2)c1)C(=O)[C@@H](O)[C@@H](O)[C@H](O)[C@@H](O)CO` [Compound I-577, (2S,3S,4R,5S)-N-(4-{[4-chloro-3-({1-[4-(2-cyclopropoxyphenyl)pyridin-3-yl]cyclopropoxy}methyl)phenyl]sulfanyl}butyl)-2,3,4,5,6-pentahydroxy-N-(3-methanesulfonamidopropyl) hexanamide], the EC50 is under 0.1 µM. Consider `CCOC(=O)NCCCN(CCCCSc1ccc(Cl)c(COC2(c3cnccc3-c3ccccc3OC3CC3)CC2)c1)C(=O)[C@@H](O)[C@@H](O)[C@H](O)[C@@H](O)CO` [Compound I-578, ethyl N-{3-[(2S,3S,4R,5S)-N-(4-{[4-chloro-3-({1-[4-(2-cyclopropoxyphenyl)pyridin-3-yl]cyclopropoxy}methyl)phenyl]sulfanyl}butyl)-2,3,4,5,6-pentahydroxyhexanamido]propyl}carbamate], for which the EC50 is under 0.1 µM. Take `CC(=O)NCCCCN(CCCSc1ccc(Cl)c(COC2(c3cnccc3-c3ccccc3OC3CC3)CC2)c1)C(=O)[C@@H](O)[C@@H](O)[C@H](O)[C@@H](O)CO` [Compound I-579, (2S,3S,4R,5S)-N-(3-{[4-chloro-3-({1-[4-(2-cyclopropoxyphenyl)pyridin-3-yl]cyclopropoxy}methyl)phenyl]sulfanyl}propyl)-N-(4-acetamidobutyl)-2,3,4,5,6-pentahydroxyhexanamide]: the EC50 was under 0.1 µM. On to `CS(=O)(=O)NCCCCN(CCCSc1ccc(Cl)c(COC2(c3cnccc3-c3ccccc3OC3CC3)CC2)c1)C(=O)[C@@H](O)[C@@H](O)[C@H](O)[C@@H](O)CO` [Compound I-580, (2S,3S,4R,5S)-N-(3-{[4-chloro-3-({1-[4-(2-cyclopropoxyphenyl)pyridin-3-yl]cyclopropoxy}methyl)phenyl]sulfanyl}propyl)-2,3,4,5,6-pentahydroxy-N-(4-methanesulfonamidobutyl) hexanamide], for which the EC50 is 0.126 to 1 µM. `O=C([C@@H](O)[C@@H](O)[C@H](O)[C@@H](O)CO)N(CCCCSc1ccc(Cl)c(CNC2(c3cnccc3-c3ccccc3OC3CC3)CC2)c1)C1CCS(=O)(=O)CC1` [Compound I-581, (2S,3S,4R,5S)-N-[4-({4-chloro-3-[({1-[4-(2-cyclopropoxyphenyl)pyridin-3-yl]cyclopropyl}amino)methyl]phenyl}sulfanyl)butyl]-N-(1,1-dioxo-1λ^6-thian-4-yl)-2,3,4,5,6-pentahydroxyhexanamide]: the EC50 is under 0.1 µM. For `CS(=O)(=O)NCCCCN(CCCCSc1ccc(Cl)c(CNC2(c3cnccc3-c3ccccc3OC3CC3)CC2)c1)C(=O)[C@@H](O)[C@@H](O)[C@H](O)[C@@H](O)CO` [Compound I-582, (2S,3S,4R,5S)-N-[4-({4-chloro-3-[({1-[4-(2-cyclopropoxyphenyl)pyridin-3-yl]cyclopropyl}amino)methyl]phenyl}sulfanyl)butyl]-2,3,4,5,6-pentahydroxy-N-(4-methanesulfonamidobutyl) hexanamide], the EC50 was under 0.1 µM. On to `CS(=O)(=O)CCN(CCCSc1ccc(Cl)c(CNC2(c3cnccc3-c3ccccc3OC3CC3)CC2)c1)C(=O)[C@@H](O)[C@@H](O)[C@H](O)[C@@H](O)CO` [Compound I-583, (2S,3S,4R,5S)-N-[3-({4-chloro-3-[({1-[4-(2-cyclopropoxyphenyl)pyridin-3-yl]cyclopropyl}amino)methyl]phenyl}sulfanyl)propyl]-2,3,4,5,6-pentahydroxy-N-(2-methanesulfonylethyl) hexanamide], for which the EC50 was 0.126 to 1 µM. For the compound `CS(=O)(=O)CCN(CCCCSc1ccc(Cl)c(CNC2(c3cnccc3-c3ccccc3OC3CC3)CC2)c1)C(=O)[C@@H](O)[C@@H](O)[C@H](O)[C@@H](O)CO` [Compound I-584, (2S,3S,4R,5S)-N-[4-({4-chloro-3-[({-[4-(2-cyclopropoxyphenyl)pyridin-3-yl]cyclopropyl}amino)methyl]phenyl}sulfanyl)butyl]-2,3,4,5,6-pentahydroxy-N-(2-methanesulfonylethyl) hexanamide], the EC50 is under 0.1 µM.
